The record followed here is US20230218657A1, “COMPOSITIONS, THEIR USES IN THERAPY AND METHODS THEREOF” (National University of Singapore, priority 2020, published 2023).

Holding throughout (assay type): in vivo
For test [1], the system named is apoE-/- mice. Put plainly: Total cholesterol in front footpad and plasma cholesterol. The text has this: Cyclodextrin was administrated subcutaneously alternate days.
The test system of test [2] is apoE-/- mice. The test is described as follows: Lymphatic transport of FITC dextran from footpad to draining lymph node. The text has this:
(§1) To evaluate the effect of cyclodextrin on secondary lymphedema, an animal model of lymphatic insufficiency that mimics human pathophysiology of lymphedema was used, e.g adipose tissue remodeling, lipid accumulation, inflammation and fibrosis. This mouse model can be apoE lipoprotein E deficient mice. […] It is believed that this lymphatic insufficiency leads to adipose tissue expansion and then loss and fibrosis as also observed in human secondary lymphedema. To confirm this, female apoE-/- mice were treated with 2 g/kg body of cyclodextrin […] subcutaneously or vehicle alone (saline) subcutaneously every alternative day for a total of 2, 4 or 8 doses. Mice were euthanized, tissue swelling was observed macroscopically and lymphatic transport was examined by following up the transport of FITC dextran from the front footpad to the draining lymph nodes. Skin tissues was also examined histologically for lipid content (Oil red O staining).
FIG. 3 plots the relative fluorescence in the lymph nodes of respective female WT or apoE-/- mice after receiving subcutaneous injection of cyclodextrin (CD; 2 g/kg body weight) or Saline (control, NT) every alternative day for a total of 4 doses. The mice were harvested when the mice were 17 weeks old on high fat diet. Lymphatic drainage was assessed by measuring the transport of fluorescent dextran from the footpad (site of injection) to the draining lymph node.
FIG. 4 plots the relative fluorescence in the lymph nodes of the respective mice under a different dosage regime.

In test [3] the test system is apoE-/- mice. Put plainly: CD68 immunofluorescence staining of back skin (inflammation, macrophage infiltration). As to conditions: 17 weeks old, particularly the 8 doses regime. How it is done: (§2) The formulation was assessed if it can reverses some tissue changes associated with lymphedema including fibrosis and inflammation.
CD68 is a pan-macrophage marker, perilipin was used to identify adipocytes and DAPI stains for the nucleus.

Test [4] deals with apoE-/- mice. Put plainly: Footpad tissue edema / swelling observed macroscopically in apoE-/- mice.
Text: as §1
FIG. 1 illustrates images of footpads from female wild-type (WT) or apoE-/-mice after receiving subcutaneous injection of cyclodextrin (CD; 2 g/kg body weight) or saline (control, NT) every alternative day for a total of 4 doses and harvested when mice were 17 weeks old on high fat diet. Swelling of the footpad of the mice was observed macroscopically (arrow heads: swelling region).

The subject of test [5] is apoE-/- mice. Put plainly: Oil red O staining of footpad skin for lipid accumulation. As to conditions: 2 g/kg subcutaneous, alternate days, 4 doses; female apoE-/- mice, 17 weeks old, high fat diet; vs saline.
Text: as §1
FIG. 2 illustrates microscopic images of female WT or apoE-/- mice after receiving subcutaneous injection of cyclodextrin (CD; 2 g/kg body weight) or saline (control, NT) every alternative day for a total of 4 doses and harvested when mice were 17 weeks old on high fat diet. Section of footpad skin were stained for neutral lipid with Oil red O (red staining) to identify lipid accumulation in the tissue.

Test [6] concerns apoE-/- mice. Put plainly: Masson's Trichrome staining of back skin (fibrosis, collagen deposition). As to conditions: 17 weeks old, particularly the 8 doses regime. The method, then: as §2
Collagen was stained in blue, muscle and cytoplasm was stained in red and the nucleus was stained in black.

[7] abbreviates: 8 doses, apoE-/- mice at 42 weeks of age (greater severity).

Entries after “also recorded” stand apart in the source; their conditions may differ.

For cyclodextrin, the plasma cholesterol levels result in test [1] (apoE-/- mice treated with cyclodextrin) is given as “does not affect plasma cholesterol levels”. Further, the “tissue cholesterol (total cholesterol in front footpad)” value in test [1] (subcutaneous, alternate days, 4 or 8 doses, apoE-/- mice, 17 weeks old) is on record as “reduces tissue cholesterol; also recorded: decreased total cholesterol levels in the front foot pad”. Also, the lymphatic function result in test [2] (2 g/kg subcutaneous, alternate days, 2 doses, female apoE-/- mice, 17 weeks old) is “improved lymphatic function but in lesser extent compared to 4 doses; also recorded: sufficient to improve lymphatic function”; in test [2] (2 g/kg subcutaneous, alternate days, 8 doses, female apoE-/- mice, 17 weeks old, compared to 4 doses) it was “did not further enhance lymphatic function; also recorded: did not improve further lymphatic function”; in test [2] (setting [7]), “not able to improve lymphatic function”. The “lymphatic transport / lymphatic function” value in test [2] (2 g/kg subcutaneous, alternate days, 4 doses, female apoE-/- mice, 17 weeks old) is listed as “completely restored lymphatic transport; also recorded: restoring completely lymphatic function; also recorded: completely restored it”. For the same substance, the “inflammation (infiltration of macrophages in adipose tissue, CD68) in back skin” value in test [3] was “reduces fibrosis (FIG. 7A) and inflammation; also recorded: the extent of macrophage accumulation and crown-like structures (white boxes) decreases”. Also, the “tissue edema / footpad swelling” value in test [4] (2 g/kg subcutaneous, alternate days, 4 doses, female apoE-/- mice, 17 weeks old, high fat diet, vs saline) is “improved significantly tissue edema in the footpad; also recorded: decreased footpad swelling”. For the same substance, the tissue swelling result in test [4] (setting [7]) is “not able to improve lymphatic function and ameliorate tissue changes such as tissue swelling”. In addition, the reducing lymphedema result in test [4] (intradermal injection, animal model of lymphedema (summary statement)) was “effective in reducing lymphedema”. Further, the “lipid accumulation in footpad skin (Oil red O staining)” value in test [5] is “decreased lipid accumulation; also recorded: decreased accumulation of lipids”. In test [6], the “fibrosis (collagen deposition) in back skin” value is on record as “reduces fibrosis”.
